Measurements: publication PMC11762167, “G Protein-Coupled Receptor 17 Inhibits Glucagon-like Peptide-1 Secretion via a Gi/o-Dependent Mechanism in Enteroendocrine Cells” (Biomolecules, 2024)

Legend:
Format in all cases: cell-based
hGPR17S = target: T1, hGPR17S (Homo sapiens, UniProt Q13304); experiment: GloSensor cAMP in HEK293 cells transfected with hGPR17S
T1 construct: host or cells: HEK293 cells (ATCC CRL-1573), transient transfection
Description: (§1) HEK293 cells were maintained and transfected as previously described.
(§2) Live-cell, real-time cAMP measurements were performed using Promega (Madison, WI, USA) GloSensor cAMP luminescent biosensor technology. Glosensor cAMP experiments were conducted as previously described in GLUTag cells and HEK293 cells.

hGPR17L [1] = target: T2, hGPR17L (Homo sapiens, UniProt Q13304); experiment: Endpoint cAMP (HTRF) in GLUTag cells expressing hGPR17L; set-up: host or cells: GLUTag cells (murine enteroendocrine line), adenoviral transduction; Mean Diff. of cAMP, MDL29,951 vs FSK alone (Tukey): unit not given here; conditions: for Predicted (LS) mean diff.: Fig 2B, Forskolin; for Mean Diff. of cAMP, MDL29,951 vs FSK alone (Tukey): hGPR17L
Description: GLUTag cells were maintained in Dulbecco’s Modified Eagle Medium (DMEM) supplemented with 10% fetal bovine serum and 1% penicillin–streptomycin in a humidified incubator at 37 °C and 5% CO2. For adenovirus transduction, GLUTag cells were seeded into poly-D-lysine coated 96-well plates or 4-chamber slides. The next day, cells were transduced with adenoviruses (100–1250 viral particles per cell at time of seeding) as indicated. After 24–30 h, adenovirus-containing media was changed to serum-free growth media for overnight serum starvation. The following day, GLUTag cells were used for cAMP or calcium signaling assays, GLP-1 secretion assays, or immunostaining and imaging.
Endpoint cAMP measurements were conducted as follows. GLUTag cells were seeded into poly-D-lysine-coated 96-well plates and transduced with adenovirus as specified above and then tested for cAMP signaling. Medium was removed and cells were washed with cAMP stimulation buffer (Hanks’ balanced salt solution (HBSS), 20 mM HEPES, pH 7.4) and then incubated in cAMP stimulation buffer for 30 min at 37 °C and 5% CO2. Cells were then treated for 30 min with agonist and forskolin in the presence of 500 µM IBMX at 37 °C and 5% CO2. Stimulation buffer was then decanted, and cAMP lysis buffer (50 mM HEPES, 10 mM CaCl2, 0.35% Triton X-100, and 500 µM IBMX) was added and shaken at 700 rpm for 1 h. Lysate was transferred to a 384-well plate, and the cAMP levels were quantified using the Cisbio HTRF cAMP (Gi kit; Revvity, Waltham, MA, USA) according to the manufacturer’s protocol.

hGPR17L [2] = target: T2, hGPR17L; experiment: GloSensor cAMP in HEK293 cells transfected with hGPR17L; set-up: host or cells: GLUTag cells (murine enteroendocrine line), adenoviral transduction
Description: as §1, §2

mGPR17 = mGPR17 (Mus musculus, UniProt Q6NS65); experiment: GloSensor cAMP in HEK293 cells transfected with mGPR17; set-up: host or cells: GLUTag cells, adenoviral transduction
Description: as §1, §2

[3] = 3 µM forskolin, read-out: cAMP Potency EC50 (reversal of inhibition)
[4] = 3 µM forskolin-stimulated GloSensor cAMP, read-out: cAMP Potency IC50
[5] = 100 μM MDL29,951, 3 µM forskolin
[6] = 10 µM forskolin, GLUTag hGPR17L

Sequence of mGPR17 (Q6NS65 whole entry): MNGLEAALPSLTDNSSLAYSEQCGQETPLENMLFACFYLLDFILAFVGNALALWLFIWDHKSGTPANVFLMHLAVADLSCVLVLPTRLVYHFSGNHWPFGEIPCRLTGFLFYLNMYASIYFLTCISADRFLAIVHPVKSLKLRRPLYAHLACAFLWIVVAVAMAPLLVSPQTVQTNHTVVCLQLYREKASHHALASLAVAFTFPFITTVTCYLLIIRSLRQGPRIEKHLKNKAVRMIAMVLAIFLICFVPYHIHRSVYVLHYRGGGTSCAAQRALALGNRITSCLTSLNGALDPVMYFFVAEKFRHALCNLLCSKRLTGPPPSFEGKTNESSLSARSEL
T1 sequence (Q13304 29-367): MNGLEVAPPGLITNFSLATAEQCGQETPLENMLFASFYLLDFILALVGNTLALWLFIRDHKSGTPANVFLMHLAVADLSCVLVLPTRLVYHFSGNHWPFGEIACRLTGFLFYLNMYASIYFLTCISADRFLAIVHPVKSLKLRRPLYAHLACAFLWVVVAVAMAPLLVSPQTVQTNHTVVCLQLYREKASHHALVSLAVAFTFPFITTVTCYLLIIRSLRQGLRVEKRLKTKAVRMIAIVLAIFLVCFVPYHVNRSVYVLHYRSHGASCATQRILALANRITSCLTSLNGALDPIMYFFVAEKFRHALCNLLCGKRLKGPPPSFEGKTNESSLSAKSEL
T2 sequence (Q13304 whole entry): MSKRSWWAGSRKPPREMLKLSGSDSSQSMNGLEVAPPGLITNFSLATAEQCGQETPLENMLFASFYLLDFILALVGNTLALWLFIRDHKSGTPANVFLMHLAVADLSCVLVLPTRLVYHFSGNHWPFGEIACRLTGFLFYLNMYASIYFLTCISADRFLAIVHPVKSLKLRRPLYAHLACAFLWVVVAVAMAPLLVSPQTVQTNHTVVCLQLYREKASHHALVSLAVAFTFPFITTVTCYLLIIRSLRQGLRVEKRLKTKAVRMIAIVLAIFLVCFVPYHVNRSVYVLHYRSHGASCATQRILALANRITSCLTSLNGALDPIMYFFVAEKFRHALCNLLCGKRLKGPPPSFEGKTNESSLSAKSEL

## O=C(O)CCc1c(C(=O)O)[nH]c2cc(Cl)cc(Cl)c12 [MDL29,951]
hGPR17S; 3 µM forskolin
  cAMP Maximum Inhibition (% Inhibition): 48±2.2%
  cAMP Potency (pEC50) (reversal of inhibition): 5.45±0.07
  cAMP Potency (pIC50): 8.83±0.09
hGPR17S; [3]
  EC50: 3600 nM
hGPR17S; [4]
  IC50: 1.5 nM
hGPR17S; [5]
  cAMP Effect of 100 μM MDL (% Inhibition): 13±3.7%
hGPR17L [1]; 100 nM YM-254890, 10 µM forskolin
  effect on forskolin-stimulated cAMP upon treatment with Gq inhibitor YM-254890: inhibited
hGPR17L [1]; 100 ng/mL PTX, 10 µM forskolin
  inhibition of forskolin-stimulated cAMP in the presence of PTX: unable to inhibit
hGPR17L [1]; 10 µM forskolin, 500 µM IBMX, GLUTag hGPR17L, read-out: IC50, inhibition of forskolin-stimulated cAMP
  IC50: 29 nM
hGPR17L [1]; [6]
  pEC50, reversal of inhibition of forskolin-stimulated cAMP: 4.94 ± 0.09
  pIC50, inhibition of forskolin-stimulated cAMP: 7.54 ± 0.11
hGPR17L [1]; 10 µM forskolin, GLUTag hGPR17L, read-out: EC50, reversal of inhibition of forskolin-stimulated cAMP at higher concentrations
  EC50: 12000 nM
hGPR17L [1]; log [MDL29,951] (M) -4.0 vs. Vehicle, +100 nM YM-254890
  Predicted (LS) mean diff.: -29.51
hGPR17L [1]; log [MDL29,951] (M) -4.0 vs. Vehicle, +100 ng/mL PTX
  Predicted (LS) mean diff.: 28.26
hGPR17L [1]; log [MDL29,951] (M) -4.0 vs. Vehicle, +Vehicle
  Predicted (LS) mean diff.: -12.1
hGPR17L [1]; log [MDL29,951] (M) -4.6 vs. Vehicle, +100 nM YM-254890
  Predicted (LS) mean diff.: -35.09
hGPR17L [1]; log [MDL29,951] (M) -4.6 vs. Vehicle, +100 ng/mL PTX
  Predicted (LS) mean diff.: 20.2
hGPR17L [1]; log [MDL29,951] (M) -4.6 vs. Vehicle, +Vehicle
  Predicted (LS) mean diff.: -15.6
hGPR17L [1]; log [MDL29,951] (M) -5.2 vs. Vehicle, +100 nM YM-254890
  Predicted (LS) mean diff.: -39.39
hGPR17L [1]; log [MDL29,951] (M) -5.2 vs. Vehicle, +100 ng/mL PTX
  Predicted (LS) mean diff.: 8.85
hGPR17L [1]; log [MDL29,951] (M) -5.2 vs. Vehicle, +Vehicle
  Predicted (LS) mean diff.: -22.36
hGPR17L [1]; log [MDL29,951] (M) -5.8 vs. Vehicle, +100 nM YM-254890
  Predicted (LS) mean diff.: -44.26
hGPR17L [1]; log [MDL29,951] (M) -5.8 vs. Vehicle, +100 ng/mL PTX
  Predicted (LS) mean diff.: -1.585
hGPR17L [1]; log [MDL29,951] (M) -5.8 vs. Vehicle, +Vehicle
  Predicted (LS) mean diff.: -32.92
hGPR17L [1]; log [MDL29,951] (M) -6.4 vs. Vehicle, +100 nM YM-254890
  Predicted (LS) mean diff.: -39.29
hGPR17L [1]; log [MDL29,951] (M) -6.4 vs. Vehicle, +100 ng/mL PTX
  Predicted (LS) mean diff.: -7.715
hGPR17L [1]; log [MDL29,951] (M) -6.4 vs. Vehicle, +Vehicle
  Predicted (LS) mean diff.: -33.45
hGPR17L [1]; log [MDL29,951] (M) -7.0 vs. Vehicle, +100 nM YM-254890
  Predicted (LS) mean diff.: -30.32
hGPR17L [1]; log [MDL29,951] (M) -7.0 vs. Vehicle, +100 ng/mL PTX
  Predicted (LS) mean diff.: -2.207
hGPR17L [1]; log [MDL29,951] (M) -7.0 vs. Vehicle, +Vehicle
  Predicted (LS) mean diff.: -27.4
hGPR17L [1]; log [MDL29,951] (M) -7.6 vs. Vehicle, +100 nM YM-254890
  Predicted (LS) mean diff.: -16.56
hGPR17L [1]; log [MDL29,951] (M) -7.6 vs. Vehicle, +100 ng/mL PTX
  Predicted (LS) mean diff.: -4.54
hGPR17L [1]; log [MDL29,951] (M) -7.6 vs. Vehicle, +Vehicle
  Predicted (LS) mean diff.: -8.48
hGPR17L [1]; log [MDL29,951] (M) -8.2 vs. Vehicle, +100 nM YM-254890
  Predicted (LS) mean diff.: -9.253
hGPR17L [1]; log [MDL29,951] (M) -8.2 vs. Vehicle, +100 ng/mL PTX
  Predicted (LS) mean diff.: 0.26
hGPR17L [1]; log [MDL29,951] (M) -8.2 vs. Vehicle, +Vehicle
  Predicted (LS) mean diff.: 3.753
hGPR17L [1]; log [MDL29,951] (M) -8.8 vs. Vehicle, +100 nM YM-254890
  Predicted (LS) mean diff.: -3.55
hGPR17L [1]; log [MDL29,951] (M) -8.8 vs. Vehicle, +100 ng/mL PTX
  Predicted (LS) mean diff.: -5.335
hGPR17L [1]; log [MDL29,951] (M) -8.8 vs. Vehicle, +Vehicle
  Predicted (LS) mean diff.: 6.603
hGPR17L [1]; log [MDL29,951] (M) -9.4 vs. Vehicle, +100 nM YM-254890
  Predicted (LS) mean diff.: 1.64
hGPR17L [1]; log [MDL29,951] (M) -9.4 vs. Vehicle, +100 ng/mL PTX
  Predicted (LS) mean diff.: 2.945
hGPR17L [1]; log [MDL29,951] (M) -9.4 vs. Vehicle, +Vehicle
  Predicted (LS) mean diff.: 8.423
hGPR17L [1]; at 390 nM MDL29,951, 10 µM forskolin
  maximum inhibition of forskolin-stimulated cAMP: 37 ± 5.1%
hGPR17L [1]; log [MDL29,951] (M) -4.0
  Mean Diff. of cAMP, MDL29,951 vs FSK alone (Tukey): -0.306
hGPR17L [1]; log [MDL29,951] (M) -4.6
  Mean Diff. of cAMP, MDL29,951 vs FSK alone (Tukey): -0.593
hGPR17L [1]; log [MDL29,951] (M) -5.2
  Mean Diff. of cAMP, MDL29,951 vs FSK alone (Tukey): -1.138
hGPR17L [1]; log [MDL29,951] (M) -5.8
  Mean Diff. of cAMP, MDL29,951 vs FSK alone (Tukey): -1.598
hGPR17L [1]; log [MDL29,951] (M) -6.4
  Mean Diff. of cAMP, MDL29,951 vs FSK alone (Tukey): -1.654
hGPR17L [1]; log [MDL29,951] (M) -7.0
  Mean Diff. of cAMP, MDL29,951 vs FSK alone (Tukey): -1.376
hGPR17L [1]; log [MDL29,951] (M) -7.6
  Mean Diff. of cAMP, MDL29,951 vs FSK alone (Tukey): -0.7263
hGPR17L [1]; log [MDL29,951] (M) -8.2
  Mean Diff. of cAMP, MDL29,951 vs FSK alone (Tukey): -0.237
hGPR17L [1]; log [MDL29,951] (M) -8.8
  Mean Diff. of cAMP, MDL29,951 vs FSK alone (Tukey): -0.04325
hGPR17L [1]; log [MDL29,951] (M) -9.4
  Mean Diff. of cAMP, MDL29,951 vs FSK alone (Tukey): -0.0985
hGPR17L [1]; hGPR17L-WT (1250), log [MDL29,951] (M) -4.0 vs. Vehicle, Forskolin stimulation, Figure 4B
  Mean Diff. (Tukey's multiple comparisons test), cAMP, Row 10 vs. Row 11: -9.193
hGPR17L [1]; hGPR17L-WT (1250), log [MDL29,951] (M) -4.6 vs. Vehicle, Forskolin stimulation, Figure 4B
  Mean Diff. (Tukey's multiple comparisons test), cAMP, Row 9 vs. Row 11: -17.14
hGPR17L [1]; hGPR17L-WT (1250), log [MDL29,951] (M) -5.2 vs. Vehicle, Forskolin stimulation, Figure 4B
  Mean Diff. (Tukey's multiple comparisons test), cAMP, Row 8 vs. Row 11: -27.93
hGPR17L [1]; hGPR17L-WT (1250), log [MDL29,951] (M) -5.8 vs. Vehicle, Forskolin stimulation, Figure 4B
  Mean Diff. (Tukey's multiple comparisons test), cAMP, Row 7 vs. Row 11: -39.19
hGPR17L [1]; hGPR17L-WT (1250), log [MDL29,951] (M) -6.4 vs. Vehicle, Forskolin stimulation, Figure 4B
  Mean Diff. (Tukey's multiple comparisons test), cAMP, Row 6 vs. Row 11: -41.54
hGPR17L [1]; hGPR17L-WT (1250), log [MDL29,951] (M) -7.0 vs. Vehicle, Forskolin stimulation, Figure 4B
  Mean Diff. (Tukey's multiple comparisons test), cAMP, Row 5 vs. Row 11: -35.32
hGPR17L [1]; hGPR17L-WT (1250), log [MDL29,951] (M) -7.6 vs. Vehicle, Forskolin stimulation, Figure 4B
  Mean Diff. (Tukey's multiple comparisons test), cAMP, Row 4 vs. Row 11: -21.64
hGPR17L [1]; hGPR17L-WT (1250), log [MDL29,951] (M) -8.2 vs. Vehicle, Forskolin stimulation, Figure 4B
  Mean Diff. (Tukey's multiple comparisons test), cAMP, Row 3 vs. Row 11: -11.12
hGPR17L [1]; hGPR17L-WT (1250), log [MDL29,951] (M) -8.8 vs. Vehicle, Forskolin stimulation, Figure 4B
  Mean Diff. (Tukey's multiple comparisons test), cAMP, Row 2 vs. Row 11: -5.06
hGPR17L [1]; hGPR17L-WT (1250), log [MDL29,951] (M) -9.4 vs. Vehicle, Forskolin stimulation, Figure 4B
  Mean Diff. (Tukey's multiple comparisons test), cAMP, Row 1 vs. Row 11: -7.193
hGPR17L [2]; 3 µM forskolin
  cAMP Maximum Inhibition (% Inhibition): 48±2.9%
  cAMP Potency (pEC50) (reversal of inhibition): 5.40±0.09
  cAMP Potency (pIC50): 8.52±0.08
hGPR17L [2]; [3]
  EC50: 4000 nM
hGPR17L [2]; [4]
  IC50: 3 nM
hGPR17L [2]; [5]
  cAMP Effect of 100 μM MDL (% Inhibition): 9.0±2.1%
mGPR17; 3 µM forskolin
  cAMP Maximum Inhibition (% Inhibition): 61±3.4%
  cAMP Potency (pEC50) (reversal of inhibition): 4.74±0.23
  cAMP Potency (pIC50): 8.48±0.20
mGPR17; [3]
  EC50: 18000 nM
mGPR17; [4]
  IC50: 3.3 nM
mGPR17; [5]
  cAMP Effect of 100 μM MDL (% Inhibition): 45±6.3%
